Laboratory results published in article PMC7828231, “Delphinidin Increases the Sensitivity of Ovarian Cancer Cell Lines to 3-bromopyruvate” (International Journal of Molecular Sciences, 2021).
pIC50: −log10 of the molar value. Read-outs that look alike come from different tables or passages of the source.

How the values were obtained:
Format in all cases: cell-based, human
SKOV3 cells [1] = assay: Level of reactive oxygen species (DHE, DCFDA); settings: 25-µM D, 40 µM 3-BP, 24 h
Description: (§1) The level of ROS in the MRC-5, SKOV3 and PEO1 cells after 24-h exposure to delphinidin chloride and 3-BP was assayed with 2′,7′-dichlorofluorescein diacetate (DCFDA) and dihydroethidium (DHE). Briefly, cells were seeded in a black 96-well flat clear-bottom plate at a density of 7.5 × 10^3/well for MRC-5 fibroblasts and 1 × 10^4 /well for cancer cells and allowed to attach at 37 °C for 24 h. After 24-h incubation, the medium was removed and replaced with a medium containing the examined substances at concentrations given previously. After incubation, the medium was removed and replaced by a 10-µM fluorescent probe (DHE or DCFDA) (100 µL/well). Stock solutions of the probes were prepared in DMSO, and working solutions were prepared in PBS. Fluorescence was measured at 490/529 nm (DCFDA) and 475/579 nm (DHE) for 2 h at 37 °C in 1-min intervals.

MRC-5 fibroblasts [2] = assay: Level of reactive oxygen species (DHE, DCFDA); settings: 25-µM D, 40 µM 3-BP, 24 h
Description: as §1

PEO1 cells [3] = assay: Level of reactive oxygen species (DHE, DCFDA); settings: 25-µM D, 20 µM 3-BP, 24 h
Description: as §1

SKOV3 cells [4] = assay: Mitochondrial membrane potential (JC-1); settings: 25-µM D, 40 µM 3-BP, 24 h
Description: (§2) Changes of mitochondrial membrane potential was evaluated using 5,5′,6,6′-tetrachloro-1,1′,3,3′-tetraethyl-imidacarbocyanine iodide, 5,5′,6,6′-tetrachloro-1,1′,3,3′-tetraethylbenzimidazolocarbocyanine iodide (JC-1) with a Mitochondrial Membrane Potential Assay Kit.
(§3) The cells were seeded into black plates and treated as mentioned before. After 24h incubation with the studied compounds, the medium was discharged and replaced with 100x diluted JC-1 reagent in complete culture medium and incubated for 30 min in a CO2 incubator. Next, the plate was centrifuged at 4000 rpm for 5 min and afterwards the reagent was aspirated, and cells were washed with 150 μL/well Cell-Based Assay Buffer and centrifuged once more. After removing the supernatant, 100 μL/well of the new buffer was added. Fluorescence was measured at 540/570 nm (red fluorescence) and 485/535 nm (green fluorescence). The results were presented as a ratio of green to red fluorescence intensity ratio.

PEO1 cells [5] = assay: Mitochondrial membrane potential (JC-1); settings: 25-µM D, 20 µM 3-BP, 24 h
Description: as §2, §3

SKOV3 cells [6] = assay: Mitochondrial mass (NAO); settings: 25-µM D, 40 µM 3-BP, 24 h
Description: (§4) Cells were seeded at the density of 2 × 10^5 cells/well onto a 24-well plate and cultured as stated before. Following 24-hour exposure to the studied compounds, the cells were trypsinized, counted and transferred to separate Eppendorf tubes, and then centrifuged for 6 minutes at 3000 rpm. Subsequently the supernatant was discharged and the cells were washed with 1 mL of PBS and centrifuged again. Afterwards, 1 mL of 10 μM NAO solution in PBS was added into the samples, and incubated for 10 min in a CO2 incubator at 37 °C. Next, the cells were centrifuged and the pellet was washed with PBS, and resuspended in 300 μL of PBS. Each sample was transferred into a 96-well black plate (100 μL/well; 3 repetitions). Fluorescence was measured at 435/535 nm. The results were determined in relation to the cell count.

PEO1 cells [7] = assay: Mitochondrial mass (NAO); settings: 25-µM D, 20 µM 3-BP, 24 h
Description: as §4

PEO1 cells [8] = assay: Apoptosis and necrosis assay (RealTime-Glo Annexin V); settings: after 24 h
Description: The levels of apoptosis and necrosis were assayed using the RealTime-Glo™ Annexin V Apoptosis and Necrosis Assay. Cells were seeded into a white 96-well plate with optical bottom, cultured and treated adequately, as stated above. After 24 h, 100 μL of the freshly prepared reagent was added to each well according to the manufacturer’s protocols. The fluorescence and luminescence were measured according to the protocols.

SKOV3 cells [9] = assay: Cytotoxicity, Neutral Red survival assay; settings: read-out: IC50 of cell survival
Description: (§5) SKOV3 and PEO1 cells were seeded in a clear 96-well plate at a density of 1 × 10^4 cells/well in 100-µL culture medium. MRC-5 cells were seeded at a density of 7.5 × 10^3/well and allowed to attach for 24 h at 37 °C. After incubation, the cells were treated with delphinidin chloride in a concentration range of 10–100 µM and 3-BP at concentrations between 5–25 µM for PEO1 and 10–50 µM for MRC-5 and SKOV3. Nontreated cells were used as a control. Stock solutions of tested substances were prepared in DMSO and their working solutions in culture media. The DMSO concentration was adjusted to 0.2% in all samples, which had no significant effect on the treated cells. After 24-h exposure time, the medium was removed and replaced with 100 µL of […] neutral red solution, and the cells were incubated at 37 °C for 1 h. Then, the cells were washed with PBS; fixed with 100 µL/well of 50% ethanol, 49% H2O and 1% glacial acetic acid and shaken (700 rpm) at room temperature for 20 min. Absorbance was measured at 540 nm against 620 nm.

MRC-5 fibroblasts [10] = assay: Cytotoxicity, Neutral Red survival assay
Description: as §5

PEO1 cells [11] = assay: Cytotoxicity, Neutral Red survival assay; settings: read-out: IC50 of cell survival
Description: as §5

| SMILES | level of DCFDA-reactive ROS (SKOV3 cells [1]) | level of DHE-detectable ROS (SKOV3 cells [1]) | level of DCFDA-reactive ROS (MRC-5 fibroblasts [2]) | level of DHE-detectable ROS (MRC-5 fibroblasts [2]) | level of DCFDA-reactive ROS (PEO1 cells [3]) | level of DHE-detectable ROS (PEO1 cells [3]) | mitochondrial potential (JC-1 fluorescence ratio) (SKOV3 cells [4]) | mitochondrial potential (JC-1 fluorescence ratio) (PEO1 cells [5]) | mitochondrial mass (SKOV3 cells [6]) | mitochondrial mass (PEO1 cells [7]) | induction of necrosis (PEO1 cells [8]) | pIC50 (SKOV3 cells [9]; Homo sapiens, SK-OV-3, 24 h) | survival of MRC-5 fibroblasts (MRC-5 fibroblasts [10]; up to a concentration of 50 µM) | pIC50 (PEO1 cells [11]; Homo sapiens, PEO1, 24 h) | pIC50 (SKOV3 cells [9]; Homo sapiens, SK-OV-3, 24 h, SKOV3, 24-h exposure, Neutral Red, ND = no reduction of survival in the concentration range studied) | pIC50 (SKOV3 cells [9]; SKOV3, 24-h exposure, Neutral Red, ND = no reduction of survival in the concentration range studied) | survival / viability of MRC-5 fibroblasts (MRC-5 fibroblasts [10]; up to 100 µM) | pIC50 (PEO1 cells [11]; Homo sapiens, PEO1, 24 h, PEO1, 24-h exposure, Neutral Red, ND = no reduction of survival in the concentration range studied) | pIC50 (PEO1 cells [11]; PEO1, 24-h exposure, Neutral Red, ND = no reduction of survival in the concentration range studied) |
| --- | --- | --- | --- | --- | --- | --- | --- | --- | --- | --- | --- | --- | --- | --- | --- | --- | --- | --- | --- |
| O=C(O)C(=O)CBr [3-BP, 3-bromopyruvic acid] | not affected | not affecting | not affected | decreased | increased | decreased | increased | decreased | increased | increased | considerable induction of necrosis | 4.39 | not compromised | 4.73 |  |  |  |  |  |
| Oc1cc(O)c2cc(O)c(-c3cc(O)c(O)c(O)c3)[o+]c2c1 [Delphinidin chloride, 3,3′,4′,5,5′,7-hexahydroxyflavylium] | not affected |  | not affected | decreased | increased | increased | increased | decreased | decreased | increased | considerable induction of necrosis |  |  |  | > 4.00 | 4.24 | did not affect | > 4.00 | 4.15 |
